How the values were obtained:
[1] = target: T1, angiotensin II type 1 receptor (Oryctolagus cuniculus, UniProt P34976); assay: Angiotensin II receptor antagonistic activity in isolated rabbit blood vessels (thoracic aorta ring, angiotensin II-induced contraction); assay type: cell-based; settings: 0.1 μM test compound, angiotensin II (10 nM)-induced contraction, read-out: Angiotensin II activity inhibitiom rate (%) at 0.1 μM concentration
T1 construct: By using a specimen of isolated rabbit blood vessels; from tissue; host or cells: rabbit (New Zealand White) thoracic aorta ring
T1 sequence (P34976 1-359): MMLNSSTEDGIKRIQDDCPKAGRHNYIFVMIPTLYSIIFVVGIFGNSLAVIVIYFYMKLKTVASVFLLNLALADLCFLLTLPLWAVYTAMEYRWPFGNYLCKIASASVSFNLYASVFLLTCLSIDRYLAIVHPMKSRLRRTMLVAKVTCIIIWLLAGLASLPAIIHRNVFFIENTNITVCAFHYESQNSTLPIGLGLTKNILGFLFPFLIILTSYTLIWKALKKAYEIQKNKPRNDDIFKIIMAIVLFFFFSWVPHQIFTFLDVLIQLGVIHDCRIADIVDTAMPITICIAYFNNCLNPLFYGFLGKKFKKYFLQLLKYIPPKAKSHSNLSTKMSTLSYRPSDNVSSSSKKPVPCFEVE
Protocol: By using a specimen of isolated rabbit blood vessels, antagonistic activity of the compounds of the invention against angiotensin II type 1 receptor was estimated from a dose-response curve of angiotensin II-induced blood vessel contraction. Specifically, the specimen of thoracic aorta ring of a rabbit (New Zealand White: male, 2.4 to 3.0 kg) was suspended in a magnus bath filled with Krebs-Henseleite buffer (composition: 118 mM NaCl, 4.7 mM KCl, 2.55 mM CaCl2, 1.18 mM MgSO4, 1.18 mM KH2PO4, 24.88 mM NaHCO3, and 11.1 mM D-glucose), and angiotensin II (10 nM)-induced contraction was obtained in the presence of the compounds of each test (1 nmol/L to 10 μmol/L). During the measurement, the inside temperature of the magnus bath was maintained at 37° C. and the bath was continuously ventilated with a sufficient amount of mixed gas (95% O2 and 5% CO2). The angiotensin II-induced contraction was converted into a relative value (%) that is based on the angiotensin II (0.1 μM)-induced contraction in the absence of the compounds of each example.

[2] = system: spontaneously hypertensive rats (SHR); assay: Hypotensive activity with tail cuff method in spontaneously hypertensive rats; assay type: in vivo, rat; settings: 3 and 10 mg/kg orally once a day for 7 days, 4, 24 and 72 hours after final administration, FIG. 1
Protocol: By using 19-week old spontaneously hypertensive rats (SHR), the body weight and the systolic blood pressure (SBP) of each rat were measured before administration of the medicine, and group separation was performed by blocking assignment so that there was no variation of these values between respective groups. Solvent control (0.5% methyl cellulose solution, MC), 3 mg/kg telmisartan, 3 and 10 mg/kg of the compound of Example 21, and 3 and 10 mg/kg of the compound of Example 23 were orally administered iteratively for 7 days, once a day. The blood pressure and the heart beat rate were measured with tail cuff method at 4, 24, and 72 hours after the administration of the final administration day. Specifically, the rat was put into a cylindrical positioner, maintained at 37° C., and the blood pressure and the heart beat rate were measured from the tail of the rat during the resting state using a non-invasive blood pressure meter (trade name: BP-98A, manufactured by Softron Co., Ltd., Tokyo, Japan). The blood pressure and the heart beat rate were measured for each individual three times or more in a row. When the difference of the systolic blood pressures between the consecutive measurement values was 5 mmHg or less, the average values of these measurement values were taken as data, except for the first measurement. […]

db/db mice = assay: Impaired glucose tolerance improving activity in type 2 diabetes model mouse; assay type: in vivo; settings: oral once a day, Example 23 10 mg/kg, Example 21 30 mg/kg, telmisartan 30 mg/kg; for plasma glucose concentration: 2 weeks after initiation, FIG. 2; for AUC of plasma glucose in the glucose tolerance test (120 minutes after glucose solution): 4 weeks, glucose 2 g/kg, FIG. 3
Protocol: By using 7-week old db/db mice, the body weight and the plasma glucose concentration of each mouse were measured before administration of the medicine, and group separation was performed by blocking assignment so that there was no variation of these values between respective groups. Solvent control (0.5% MC), 5 mg/kg rosiglitazone, 30 mg/kg telmisartan, 10 mg/kg of the compound of Example 23, and 30 mg/kg of the compound of Example 21 were orally administered iteratively for 4 weeks, once a day. Blood collecting was performed from the orbital vein plexus, and the plasma glucose concentration was measured at 2 weeks after the initiation of the administration. Furthermore, oral glucose tolerance test was performed at 4 weeks after the initiation of the administration. Specifically, the mouse was fasted for 24 hours from the night before the glucose tolerance test, and then a glucose solution was orally administered at a dose of 2 g/kg. The blood was collected from the tail vein of the mouse at 15, 30, 60, and 120 minutes after the administration of the glucose solution, and the concentration of the plasma glucose was measured. The area surrounded with the measured plasma glucose concentration and the time was taken as the area under the curve (AUC), and AUC for 120 minutes after administration of the glucose solution was estimated from the trapezoidal method.
Vehicle, Rosiglitazone, Telmisartan, Compound 23, and Compound 21 in FIGS. 2 and 3 represent solvent control, rosiglitazone, telmisartan, the compound of Example 23, and the compound of Example 21, respectively. The vertical axis of FIG. 2 represents the plasma glucose concentration. The data in FIG. 2 represents individual values and average values of each individual. The vertical axis of FIG. 3 represents the area under the curve surrounded with the plasma glucose concentration and the time (for 120 minutes after administration of the glucose solution). The data in FIG. 3 represents individual values and average values of each individual. […] Such activities were not confirmed for the telmisartan administration group.

[3] = system: Zucker diabetic fatty (ZDF) rats; assay: Activity for diabetic nephropathy in Zucker diabetic fatty rats; assay type: in vivo, rat; settings: 3 mg/kg once a day for 15 weeks; for elimination amount of urinary total protein per 18 hours: FIG. 4; for plasma triglyceride concentration: FIG. 5; for plasma total cholesterol concentration: FIG. 6; for renal protecting activity (diabetic nephropathy): overall conclusion
Protocol: By using 8-week old Zucker diabetic fatty (ZDF) rats, the body weight, the elimination amount of urinary total protein (UTP), the plasma triglyceride concentration (TG), and the plasma total cholesterol concentration (TC) of each rat were measured before administration of the medicine, and group separation was performed by blocking assignment so that there was no variation of these values between respective groups. Solvent control (0.5% MC), 3 mg/kg telmisartan, 3 mg/kg of the compound of Example 21, and 3 mg/kg of the compound of Example 23 were administered iteratively for 15 weeks once a day. UTP, TG, and TC were measured according to a general method during the administration period at 4, 8, 12, and 15 weeks after the administration.
Vehicle, Telmisartan, Compound 23, and Compound 21 in FIGS. 4, 5, and 6 represent solvent control, telmisartan, the compound of Example 23, and the compound of Example 21, respectively. The horizontal axis of FIG. 4-1 represents time (weeks after administration), and the vertical axis represents the elimination amount of urinary total protein per 18 hours. The data in FIG. 4-1 represents average values of each individual in each point, wherein -●- represents Vehicle (solvent control), -♦- represents Telmisartan, -▪- represents Compound 23 (the compound of Example 23), and -▴- represents Compound 21 (the compound of Example 21). The vertical axis of FIG. 4-2 represents the elimination amount of urinary total protein per 18 hours. The data in FIG. 4-2 represents individual values and average values of each individual +standard deviation.
The vertical axis of FIG. 5 represents the plasma triglyceride concentration. The data in FIG. 5 represents individual values and average values of each individual.
The vertical axis of FIG. 6 represents the plasma total cholesterol concentration. The data in FIG. 6 represents individual values and average values of each individual.
Furthermore, it was believed that one reason for the potent activity may be related to improving activity of lipid metabolism, and it is believed that the potent activity is attributed to activities other than the angiotensin receptor antagonistic activity.

| SMILES | inhibition at 0.1 µM [1] [%] | blood pressure lowering activity (change in systolic blood pressure from pre-administration) [2] | plasma glucose concentration (db/db mice) | AUC of plasma glucose in the glucose tolerance test (120 minutes after glucose solution) (db/db mice) | elimination amount of urinary total protein per 18 hours [3] | plasma triglyceride concentration [3] | plasma total cholesterol concentration [3] | renal protecting activity (diabetic nephropathy) [3] |
| --- | --- | --- | --- | --- | --- | --- | --- | --- |
| CCCCc1nc(C2CC2)n(-c2ncc(OCC)cn2)c(=O)c1Cc1ccc(-c2ccccc2-c2noc(=O)[nH]2)nc1 [Example 23, 3-{2-{5-{[4-butyl-2-cyclopropyl-1-(5-ethoxypyrimidin-2-yl)-6-oxo-1,6-dihydropyrimidin-5-yl]methyl}pyridin-2-yl}phenyl}-1,2,4-oxadiazol-5(4H)-one] | 75.2 | potent blood pressure lowering activity dose-dependently that was equivalent or more to telmisartan | remarkable lowering activity of the plasma glucose concentration | remarkably lowering AUC | remarkably inhibited increase of the elimination amount of urinary total protein, and their activity was more potent than that of telmisartan | remarkably lowered the plasma triglyceride concentration | remarkably lowered the plasma total cholesterol concentration, and such activity was more potent than that of telmisartan | potent renal protecting activity |
| CCCCc1nc(C(C)C)n(-c2ncc(OCC)cn2)c(=O)c1Cc1ccc(-c2ccccc2-c2noc(=O)[nH]2)nc1 [Example 21, 3-{2-{5-{[4-butyl-1-(5-ethoxypyrimidin-2-yl)-2-isopropyl-6-oxo-1,6-dihydropyrimidin-5-yl]methyl}pyridin-2-yl}phenyl}-1,2,4-oxadiazol-5(4H)-one] | 70.3 | potent blood pressure lowering activity dose-dependently that was equivalent or more to telmisartan | remarkable lowering activity of the plasma glucose concentration | remarkably lowering AUC | remarkably inhibited increase of the elimination amount of urinary total protein, and their activity was more potent than that of telmisartan | remarkably lowered the plasma triglyceride concentration | remarkably lowered the plasma total cholesterol concentration, and such activity was more potent than that of telmisartan | potent renal protecting activity |

— patent publication US8778954B2, “Phenylpyridine derivative and medicinal agent comprising same” (Kowa Company, Ltd., priority 2009, dated 2014)
